Source: ChEMBL document CHEMBL3046162, “Design, synthesis and evaluation of aminobenzophenone derivatives containing nitrogen mustard moiety as potential central nervous system antitumor agent” (Med Chem Res, 2013)
Values after ≈ are worked out from the molar mass of the structure shown.

Tests used:
A549 = test: Cytotoxicity against human A549 cells after 72 hrs by MTT assay; format: functional, cell-based; conditions: A549, 72 h
IMR-32 = test: Cytotoxicity against human IMR32 cells after 72 hrs by MTT assay; format: functional, cell-based; conditions: IMR-32, 72 h
[1] = Alkylating activity of the compound in aqueous acetone solution assessed as half life of compound-NBP adduct formation after 30 mins by UV-Vis spectrophotometric analysis; format: physicochemical; conditions: buffer, 0.5 h
COLO 205 = test: Cytotoxicity against human COLO205 cells after 72 hrs by MTT assay; format: functional, cell-based; conditions: COLO 205, 72 h
[2] = Cytotoxicity against human U87 cells after 72 hrs by MTT assay; format: functional, cell-based, U-87MG ATCC; conditions: U-87 MG

Compound | IC50 (A549) [µg/mL] | IC50 (IMR-32) [µg/mL] | t1/2 [1] [min] | IC50 (COLO 205) [µg/mL] | IC50 [2] [µg/mL]
O=C(CN(CCCl)CCCl)Nc1ccc([N+](=O)[O-])cc1C(=O)c1ccccc1 | 64.8 (≈ 153 µM) | 33.2 (≈ 78.2 µM) | 11.8 | 32.9 (≈ 77.5 µM) | 29.5 (≈ 69.4 µM)
CC(=O)O[C@@]12CO[C@@H]1C[C@H](O)[C@@]1(C)C(=O)[C@H](O)C3=C(C)[C@@H](OC(=O)[C@H](O)[C@@H](NC(=O)OC(C)(C)C)c4ccccc4)C[C@@](O)([C@@H](OC(=O)c4ccccc4)[C@H]21)C3(C)C.O.O.O [DOCETAXEL] | 27.3 | 23.7 | – | 30.7 | 20.7
O=C(CN(CCCl)CCCl)Nc1ccc([N+](=O)[O-])cc1C(=O)c1ccccc1Cl | 64.8 (≈ 141 µM) | 31.4 (≈ 68.4 µM) | 9.5 | 33.4 (≈ 72.8 µM) | 43.7 (≈ 95.4 µM)
O=C(CN(CCCl)CCCl)Nc1ccc([N+](=O)[O-])cc1C(=O)c1ccc(Cl)cc1 | 36.7 (≈ 79.9 µM) | 28.4 (≈ 61.9 µM) | 8.4 | 38.9 (≈ 84.9 µM) | 23.3 (≈ 50.7 µM)
O=C(CN(CCCl)CCCl)Nc1ccc(Cl)cc1C(=O)c1ccc(Cl)cc1 | 37.3 (≈ 83.3 µM) | 31.1 (≈ 69.5 µM) | 8.9 | 28.7 (≈ 64 µM) | 27.1 (≈ 60.5 µM)
O=C(CN(CCCl)CCCl)Nc1ccc(Cl)cc1C(=O)c1ccccc1 | 37.1 (≈ 89.7 µM) | 29.4 (≈ 71 µM) | 13.3 | 52.3 (≈ 126 µM) | 29 (≈ 70.1 µM)
O=C(CN(CCCl)CCCl)Nc1ccc(Cl)cc1C(=O)c1ccccc1Cl | 34.6 (≈ 77.3 µM) | 30.8 (≈ 68.8 µM) | 10.3 | 32.6 (≈ 72.7 µM) | 24.5 (≈ 54.7 µM)
O=C(O)CCCc1ccc(N(CCCl)CCCl)cc1 [CHLORAMBUCIL] | 21.1 (≈ 69.3 µM) | 20.1 (≈ 66 µM) | – | 26.7 (≈ 87.7 µM) | 18.8 (≈ 61.9 µM)
